The values below come from PubChem BioAssay (NCI).

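Exposure lasted 48 hours, with cells grown in 96-well plates and compounds tested at five concentrations. At the TGI there is no net growth.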

Common to all, as to experiment: DTP human tumour cell line panel, 48 h
The test system of test [1] is HOP-92 NSCLC.
The subject of test [2] is SNB-75 CNS.
The test system of test [3] is U251 CNS.
Test [4] has as its system NCI-H23 lung.
Test [5] relates to HCT-116 colon.
The test system of test [6] is CCRF-CEM leukemia.
Test [7] concerns OVCAR-8 ovarian.
For test [8], the system named is SN12C renal.
Test [9] has as its system SK-OV-3 ovarian.
For test [10], the system named is EKVX NSCLC.
Test [11] concerns ACHN renal.
Test [12] deals with RPMI-8226 leukemia.
Test [13] deals with NCI-H460 lung.
Test [14] concerns MDA-MB-231 breast.
In test [15] the test system is NCI/ADR-RES ovarian.
In test [16] the test system is LOX IMVI melanoma.

With `CC(C)N(C(=O)C1(C)CC1)C(C)C`, the TGI in [1], in test [2], in test [3], in test [4], in test [5] and in test [6] was over 100 µM throughout. Besides, the total growth inhibition concentration (TGI) in test [7], in test [8], in test [9], in test [10], in test [11] and in test [12] was over 100 µM throughout.
Regarding `C=C[C@]1(O)CCC[C@]2(C)C(=O)CCC12C` (some centres undefined), the TGI in test [13], in test [14], in [1], in [15], in [3] and in test [4] was over 100 µM each time. For the same compound, the TGI in test [5], in test [7], in test [8], in [9], in test [10] and in test [11] was over 100 µM throughout. The TGI in [12] and in test [16] was over 100 µM throughout.
With `Cc1ccc(/C=N/Nc2nc3ccccc3s2)s1`, the TGI in test [14] was 89.8 µM; in [1], over 100 µM; in test [2] it was over 100 µM; in test [15] it was over 100 µM; in [3] it was over 100 µM; in test [4] it was over 100 µM. Besides, the TGI is over 100 µM in test [5]; over 100 µM in test [6]; over 100 µM in test [7]; 34.3 µM in [8]; over 100 µM in test [9]; over 100 µM in test [10]. Also, the concentration for total growth inhibition (TGI) in test [11], in test [12] and in test [16] was over 100 µM in each case.
With `CC1=C(C)CC(C#N)(C#N)C(C#N)(C#N)C1`, the TGI in test [13] is over 10 µM; in [14] it was over 10 µM; in test [1] it was over 6.48 µM; in test [2], over 10 µM; in test [15] it was over 10 µM; in test [3], over 10 µM. Moreover, the TGI is over 6.63 µM in test [4]; over 7.32 µM in [5]; over 10 µM in test [6]; over 9.66 µM in test [7]; over 10 µM in test [8]; over 10 µM in test [9]. In addition, the TGI was over 10 µM in test [10], over 10 µM in test [11], over 6.71 µM in test [12] and over 10 µM in test [16].
For `CN(C)C(=S)N1C(=S)N(c2ccccc2)C(=Nc2ccccc2)C1=Nc1ccccc1`, the TGI in [13], in test [14], in [1], in test [2], in [15] and in test [3] was over 100 µM in each case. The total growth inhibition concentration (TGI) in test [4], in test [5], in test [6], in test [7], in [8] and in [9] was over 100 µM throughout. Further, the TGI in test [10], in test [11], in [12] and in [16] was over 100 µM each time.
In the case of `CC1(C)C(C#N)=[N+]([O-])C(C)(C)N1O`, the TGI in test [13], in [14], in [1], in test [2], in test [15] and in test [3] was over 100 µM each time. Besides, the TGI in test [4], in [5], in test [6], in test [7], in test [8] and in test [9] was over 100 µM in each case. For the same compound, the TGI in [10], in [11], in test [12] and in test [16] was over 100 µM each time.
`CC(C)C1C(=O)NC(CO)Cc2c[nH]c3c(C(c4c[nH]c5ccccc45)C(O)CO)ccc(c23)N1C` (centres undefined): the concentration for total growth inhibition (TGI) in test [13], in [1], in [2], in test [4], in [5] and in test [6] was over 100 µM in each case. Further, the TGI in test [7], in [8], in [9], in test [10], in [11] and in test [12] was over 100 µM each time. Also, the concentration for total growth inhibition (TGI) in test [16] was over 100 µM.
`COc1c(C)c2c(c3c1c(=O)c1ccccc1n3C)C=CC(C)(C)O2`: the TGI is 62 µM in [13]; 88.8 µM in test [1]; 62.8 µM in test [2]; 53.8 µM in [3]; over 100 µM in test [4]; 44.8 µM in test [5]. Moreover, the TGI is 83.9 µM in test [6]; 91.5 µM in test [7]; over 100 µM in [8]; 43.1 µM in test [9]; over 100 µM in test [10]; 56.3 µM in [11]. Besides, the TGI turned out to be 76.8 µM in [12] and 32.9 µM in test [16].
`O=C(/C=C/c1ccc(O)c(O)c1)OCc1ccccc1`: the TGI in test [13] was over 100 µM; in [14] it was 67.1 µM; in test [1], 58 µM; in test [15], 72.2 µM; in [3], 49.6 µM; in test [4], 60.3 µM. Also, the TGI in test [5] was 30.5 µM; in [8] it was 51.8 µM; in test [9], 67.4 µM; in test [10], over 100 µM; in test [11] it was 40.7 µM; in test [12] it was 32.2 µM. This compound yielded a TGI in [16] of 71.6 µM.
